Reference: patent publication EP4790066A1, “GLP-1R/GIPR/GCGR TRIPLE AGONIST ANALOGUE AND USE THEREOF” (Shenzhen Bay Laboratory, priority 2023, dated 2025)
*1 amine or outer side, *2 acyl side, *3 side chain or, on linkers, in order; H or OH if unused. Where a SMILES comes first, the peptide text is derived from it. Bridges are numbered along the chain shown (N, C = ends). [ ]: non-standard residue; d: D form. X1 = O=C(O)CCCCCCCCCCCCCCCCCCC(=O)N[C@@H](CCCCNC(=O)COCCOCCNC(=O)COCCOCCNC(=O)CCC(=O)N(CCNC(=O)C[*:1])CCNC(=O)C[*:2])C(=O)O; Phe(2-F) = N[C@@H](Cc1ccccc1F)C(=O)O; Iva = CC[C@](C)(N)C(=O)O; Aib = CC(C)(N)C(=O)O

Columns and labels:
Format in all cases: cell-based
[1] = biological target: T1, GIPR (Homo sapiens, UniProt P48546); assay: CreLuc method (CRE-luciferase reporter), HEK293/pGM-CREB-L-Luc/GIPR pool; conditions: 6 h incubation, read-out: EC50 (pM) for each receptor GIPR
T1 construct: expressed in transfected cells
T1 sequence (P48546 22-466): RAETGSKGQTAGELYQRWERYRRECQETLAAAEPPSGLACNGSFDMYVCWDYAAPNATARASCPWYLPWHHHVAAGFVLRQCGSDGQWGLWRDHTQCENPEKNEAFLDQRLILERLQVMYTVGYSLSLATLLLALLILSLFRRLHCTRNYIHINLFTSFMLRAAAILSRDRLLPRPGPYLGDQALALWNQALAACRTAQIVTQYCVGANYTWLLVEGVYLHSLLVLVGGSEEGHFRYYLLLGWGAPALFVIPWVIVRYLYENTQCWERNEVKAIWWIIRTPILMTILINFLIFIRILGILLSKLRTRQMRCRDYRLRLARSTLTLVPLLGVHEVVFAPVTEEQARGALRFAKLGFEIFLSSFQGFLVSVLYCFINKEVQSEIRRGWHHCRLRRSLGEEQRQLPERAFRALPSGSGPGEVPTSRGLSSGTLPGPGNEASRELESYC
Outline: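 Stable HEK293 pools co-expressing each receptor with a CRE-luciferase reporter were plated at 20,000 cells/well in freestyle medium and treated with compound dilution series for 6 h at 37 °C. Luminescence was read with ONE-GLO to derive EC50.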

[2] = biological target: T2, GLP-1R (Homo sapiens, UniProt P43220); assay: cAMP method (HTRF cAMP detection kit), HEK293/pGM-CREB-L-Luc/GLP-1 pool; conditions: read-out: EC50 (pM) for each receptor GLP-1R
T2 construct: expressed in transfected cells

[3] = biological target: T2, GLP-1R; assay: cell-based; conditions: for EC50: GLP-1R CreLuc
Method: The steps are as follows:
The stably transfected cell line HEK293/pGM-CREB-L-Luc/GLP-1R pool was constructed. […] The corresponding test cells were selected, digested (for 1 min), dispersed by pipetting, and centrifuged (1000 rpm, 5 min). The culture medium was discarded, and the cells were suspended using Freestyle culture medium, centrifuged and counted. The cells were diluted to a cell density of 5 x 10^5 cells/mL using freestyle culture medium (0% FBS) and culture medium containing 10% FBS, respectively. The cells were then added to the detection wells of a 384-well plate (40 µL/20,000 cells/well). Echo was used to add the corresponding analyte dilution series. The cell plate was incubated at 37°C and 5% CO2 for 6 h, and then ONE-GLO (20 µL/well) was added for detection. It was kept in the dark for 3 min, and then a chemiluminescent microplate reader was used for determination. The plate was read within 30 min, and the determination results were recorded. […]

T2 sequence (P43220 24-463, species assumed): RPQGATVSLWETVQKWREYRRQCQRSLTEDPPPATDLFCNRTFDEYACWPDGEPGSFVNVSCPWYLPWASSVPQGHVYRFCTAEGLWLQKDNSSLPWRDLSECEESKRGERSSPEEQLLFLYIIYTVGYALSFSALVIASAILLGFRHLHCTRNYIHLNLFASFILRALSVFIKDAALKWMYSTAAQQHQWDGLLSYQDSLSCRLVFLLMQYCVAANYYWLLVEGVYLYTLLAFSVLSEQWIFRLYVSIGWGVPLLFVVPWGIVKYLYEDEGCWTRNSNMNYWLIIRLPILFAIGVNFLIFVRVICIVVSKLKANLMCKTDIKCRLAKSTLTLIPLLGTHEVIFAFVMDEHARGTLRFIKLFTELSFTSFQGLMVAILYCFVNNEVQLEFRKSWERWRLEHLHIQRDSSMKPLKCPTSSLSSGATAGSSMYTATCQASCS

## CC[C@H](C)[C@@H]1NC(=O)[C@H](Cc2ccccc2)NC(=O)[C@@H](NC(=O)C(C)(C)NC(=O)[C@H](CCC(N)=O)NC(=O)[C@H](C)NC(=O)[C@H](CCCCNC(C)=O)NC(=O)[C@H](CCCCN)NC(=O)[C@H](CC(=O)O)NC(=O)[C@H](CC(C)C)NC(=O)[C@](C)(CC)NC(=O)[C@@H](NC(=O)[C@H](CO)NC(=O)[C@H](Cc2ccc(O)cc2)NC(=O)[C@H](CC(=O)O)NC(=O)[C@H](CO)NC(=O)[C@@H](NC(=O)[C@H](Cc2ccccc2F)NC(=O)[C@@H](NC(=O)CNC(=O)[C@H](CCC(N)=O)NC(=O)C(C)(C)NC(=O)[C@@H](N)Cc2ccc(O)cc2)[C@@H](C)O)[C@@H](C)O)[C@@H](C)CC)CSCC(=O)NCCN(C(=O)CCC(=O)NCCOCCOCC(=O)NCCOCCOCC(=O)NCCCC[C@H](NC(=O)CCCCCCCCCCCCCCCCCCC(=O)O)C(=O)O)CCNC(=O)CSC[C@@H](C(=O)NCC(=O)NCC(=O)N2CCC[C@H]2C(=O)N[C@@H](CO)C(=O)N[C@@H](CO)C(=O)NCC(=O)N[C@@H](C)C(=O)N2CCC[C@H]2C(=O)N2CCC[C@H]2C(=O)N2CCC[C@H]2C(=O)N[C@@H](CO)C(N)=O)NC(=O)[C@H](CC(C)C)NC(=O)[C@H](CC(C)C)NC(=O)[C@H](Cc2ccc(O)cc2)NC(=O)[C@H](CCC(=O)O)NC1=O [TG52] (H-Y[Aib]QGT[Phe(2-F)]TSDYSI[Iva]LDKK(Ac)AQ[Aib]CFIEYLLCGGPSSGAPPPS-NH2; linker 21-28 via X1)
[1]
  EC50: 18.9 pM
[2]
  EC50: 4.1 pM
[3]
  serum albumin binding capacity: a stronger serum albumin binding capacity
[3]; EC50 (pM) 10% FBS, 10% FBS
  EC50: 861 pM
[3]; 0% FBS, read-out: EC50 (pM) 0% FBS
  EC50: 13.1 pM
